Source: patent publication US20140148477A1, “ANIMAL ECTOPARASITE-CONTROLLING AGENT AND METHOD FOR PREVENTING OR TREATING INFECTION IN ANIMALS CAUSED BY PARASITES BY USING THE CONTROLLING AGENT” (OTSUKA AGRITECHNO CO., LTD., priority 2011, published 2014)

Experiment: Dissolution in acetone when preparing the test solution
Assay type: physicochemical
Conditions: acetone added so that the concentration was 0.5 mg/ml
Protocol: Acetone was added to each of Test Compounds 1 to 17 so that the concentration was 0.5 mg/ml, thereby preparing solutions.

solubility in acetone: not dissolved in acetone
SMILES: COC(Cn1nc(-c2cc(F)cc(F)c2)cc1O[C@@H]1CCN(c2ccc(C(F)(F)F)cn2)C[C@@H]1C)OC [Test Compound 15]
